The values below are quoted from earlier work in patent US20100076052A1, “PERINDOPRIL FORMULATIONS” (priority 2008, published 2010).

Regarding `CCCC(N[C@@H](C)C(=O)N1[C@H](C(=O)O)C[C@@H]2CCCC[C@@H]21)C(=O)OCC` (stereo partly drawn) [Perindopril erbumine, (2S,3αS,7αS)-1-[(S)—N—[(S)-1-carboxybutyl]alanyl]hexahydro-2-indolinecarboxylic acid, 1-ethyl ester, compound with t-butylamine (1:1)], where the note is “alcohol”, the solubility in alcohol result is “freely soluble”. Further, the solubility in chloroform entry (chloroform) is recorded as “freely soluble”. The solubility in water (water) is given as 60 % w/w.
